In PubChem BioAssay (NCI):
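Cultured in 96-well plates, cells were exposed to test compound for 48 hours across five concentrations. GI50 = concentration required for 50% inhibition of growth. At the TGI there is no net growth.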

Key:
Test in all cases: DTP human tumour cell line panel, 48 h
[1] = system: T-47D breast
[2] = system: SK-MEL-5 melanoma
[3] = system: UO-31 renal
[4] = system: COLO 205 colon
[5] = system: A498 renal
[6] = system: SN12C renal
[7] = system: UACC-62 melanoma
[8] = system: M14 melanoma
[9] = system: NCI-H522 lung
[10] = system: SNB-75 CNS
[11] = system: TK-10 renal
[12] = system: UACC-257 melanoma
[13] = system: IGROV1 ovarian
[14] = system: HCT-116 colon
[15] = system: HCC-2998 colon
[16] = system: NCI-H460 lung
[17] = system: DU-145 prostate
[18] = system: SW-620 colon
[19] = system: SF-268 CNS
[20] = system: HOP-92 NSCLC
[21] = system: HS 578T breast
[22] = system: OVCAR-4 ovarian
[23] = system: OVCAR-8 ovarian
[24] = system: SK-MEL-28 melanoma
[25] = system: SK-MEL-2 melanoma
[26] = system: NCI/ADR-RES ovarian
[27] = system: K-562 leukemia
[28] = system: LOX IMVI melanoma
[29] = system: SF-539 CNS
[30] = system: HL-60(TB) leukemia
[31] = system: SNB-19 CNS
[32] = system: ACHN renal
[33] = system: MOLT-4 leukemia
[34] = system: EKVX NSCLC
[35] = system: NCI-H226 lung
[36] = system: MCF7 breast
[37] = system: HT29 colon
[38] = system: 786-0 renal
[39] = system: MDA-MB-435
[40] = system: BT-549 breast
[41] = system: NCI-H23 lung
[42] = system: SK-OV-3 ovarian
[43] = system: HOP-62 NSCLC
[44] = system: SF-295 CNS
[45] = system: CCRF-CEM leukemia
[46] = system: U251 CNS
[47] = system: MDA-MB-468 breast
[48] = system: OVCAR-5 ovarian
[49] = system: MALME-3M melanoma
[50] = system: RXF 393 renal
[51] = system: HCT-15 colon
[52] = system: A549 NSCLC
[53] = system: OVCAR-3 ovarian
[54] = system: PC-3 prostate
[55] = system: MDA-MB-231 breast
[56] = system: RPMI-8226 leukemia
[57] = system: KM12 colon
[58] = system: CAKI-1 renal

COc1ccc2c(c1)c(/C=N/Nc1ccc3ccccc3n1)cn2C
GI50 [1]: 8.62 µM | TGI [1]: 36.5 µM | GI50 [2]: 10.4 µM | TGI [2]: 22.7 µM | GI50 [3]: 1.68 µM | TGI [3]: 13.4 µM | GI50 [4]: 15.9 µM | TGI [4]: 39.2 µM | GI50 [5]: 17.4 µM | TGI [5]: 33 µM | GI50 [6]: 7.61 µM | TGI [6]: 22.5 µM | GI50 [7]: 12.7 µM | TGI [7]: 26.8 µM | GI50 [8]: 13.4 µM | TGI [8]: 30.1 µM | GI50 [9]: 14 µM | TGI [9]: 39 µM | GI50 [10]: 4.97 µM | TGI [10]: 22.2 µM | GI50 [11]: 22.5 µM | TGI [11]: 39 µM | GI50 [12]: 15.4 µM | TGI [12]: 30.2 µM | GI50 [13]: 10.8 µM | TGI [13]: 26.5 µM | GI50 [14]: 8.18 µM | TGI [14]: 26.5 µM | GI50 [15]: 3.69 µM | TGI [15]: 15.4 µM | GI50 [16]: 7.8 µM | TGI [16]: 30 µM | GI50 [17]: 12.3 µM | TGI [17]: 25.5 µM | GI50 [18]: 7.46 µM | TGI [18]: 35.2 µM | GI50 [19]: 14.3 µM | TGI [19]: 31.3 µM | GI50 [20]: 1.58 µM | TGI [20]: 11.5 µM | GI50 [21]: 13 µM | TGI [21]: 33.3 µM | GI50 [22]: 13.2 µM | TGI [22]: 33.3 µM | GI50 [23]: 14.7 µM | TGI [23]: 35.7 µM | GI50 [24]: 14.9 µM | TGI [24]: 30.3 µM | GI50 [25]: 16.8 µM | TGI [25]: 35.1 µM | GI50 [26]: 10.4 µM | TGI [26]: 30.3 µM | GI50 [27]: 3.36 µM | TGI [27]: > 100 µM | GI50 [28]: 1.97 µM | TGI [28]: 5.27 µM | GI50 [29]: 10.3 µM | TGI [29]: 22.2 µM | GI50 [30]: 10.4 µM | TGI [30]: 41.7 µM | GI50 [31]: 15.8 µM | TGI [31]: 32.4 µM | GI50 [32]: 7.38 µM | TGI [32]: 21.4 µM | GI50 [33]: 6.5 µM | TGI [33]: 39.1 µM | GI50 [34]: 2.3 µM | TGI [34]: 19.4 µM | GI50 [35]: 7.95 µM | TGI [35]: 29.6 µM | GI50 [36]: 4.45 µM | TGI [36]: 24.2 µM | GI50 [37]: 5.46 µM | TGI [37]: 23.1 µM | GI50 [38]: 15.3 µM | TGI [38]: 31.6 µM | GI50 [39]: 8.41 µM | TGI [39]: 23.1 µM | GI50 [40]: 15.2 µM | TGI [40]: 30.2 µM | GI50 [41]: 11.8 µM | TGI [41]: 28.4 µM | GI50 [42]: 16.3 µM | TGI [42]: 36.5 µM | GI50 [43]: 11.3 µM | TGI [43]: 44.9 µM | GI50 [44]: 11.2 µM | TGI [44]: 24.4 µM | GI50 [45]: 5.52 µM | TGI [45]: 86.7 µM | GI50 [46]: 13.3 µM | TGI [46]: 32.9 µM | GI50 [47]: 3.91 µM | TGI [47]: 16.1 µM | GI50 [48]: 11.9 µM | TGI [48]: 24.7 µM | GI50 [49]: 18.6 µM | TGI [49]: 38.7 µM | GI50 [50]: 5.03 µM | TGI [50]: 19.1 µM | GI50 [51]: 3.4 µM | TGI [51]: 13.3 µM | GI50 [52]: 9.48 µM | TGI [52]: 28.7 µM | GI50 [53]: 13.9 µM | TGI [53]: 31.4 µM | GI50 [54]: 8.25 µM | TGI [54]: 23.9 µM | GI50 [55]: 4.36 µM | TGI [55]: 19 µM | GI50 [56]: 7.83 µM | TGI [56]: 42.9 µM | GI50 [57]: 5.47 µM | TGI [57]: 21.9 µM | GI50 [58]: 5.95 µM | TGI [58]: 21.3 µM
